Reference: patent publication US20230271938A1, “BENZIMIDAZOLES FOR USE IN THE TREATMENT OF CANCER AND INFLAMMATORY DISEASES” (Capella Therapeutics, Inc., priority 2015, published 2023)

Experiments:
[1] = test system: HCC827 human NSCLC adenocarcinoma cells (mutant ERBB1, deletion of E746-A759 in exon 19); assay: Cell proliferation assay, HCC827; format: cell-based
Method: (§1) The biological activity of a test compound was determined using cell proliferation assays. The activity against wild-type ERBB 1 was determined using A431 human epidermoid carcinoma cells (ATCC) and human epidermal keratinocytes, neonatal, or HEKn cells (ATCC).
(§2) A431 cells were grown in DMEM (Invitrogen) supplemented with 10% FBS (Lonza), 1% penicillin-streptomycin, and 2 mM glutamine (Invitrogen). HEKn cells were grown in EPILIFE® (Invitrogen) supplemented with HKGS (Invitrogen). HCC827 and H1975 were cultured in RPMI1640 supplemented with 10% FBS (Lonza), 1% penicillin-streptomycin, and 2 mM glutamine (Invitrogen). Cells were maintained and propagated at 37° C. and 5% CO2 in a humidified cell culture incubator. Aliquots of cells from early passages were preserved for liquid nitrogen storage. Frozen vials of cells were thawed at 37° C. water bath. Cells were spun to remove freezing medium. The newly revived frozen cells were adapted in culture for 10 days before used for compound testing. Cells used in the assay were less than 20 subculture passages or 3 months in culture.
(§3) The test compounds were dissolved in dimethylsulfoxide (DMSO) and stored at -20° C. before testing. […] The cells were placed in a culture incubator overnight. Next day, test compounds in DMSO were added to the cells and placed back in the culture incubator for 72 hrs. In the meantime, the cell numbers at time zero of the compound treatment (T0) was measured by ENERCOUNT® (Codex BioSolutions). At the end of the compound treatment, the cell numbers were again measured by EnerCount as T72 values. The untreated controls (Ctrl) were cell numbers recorded from the 0.1% DMSO treatment. The percent growth inhibition by the test compound was calculated by the formula: (1- (T72-T0)/(Ctrl-T0)) x 100.
(§4) The results are summarized in Tables 1 and 2, wherein A represents a value no greater than 500 nM, B represents a value greater than 500 nM but no greater than 1 µM, C represents a value greater than 1 µM but no greater than 5 µM, and D represents a value greater than 5 µM; and wherein A′ represents a ratio of greater than 10, B′ represents a ratio of no greater than 10 but no less than 5, C′ represents a ratio of no greater than 5 but no less than 2, and D′ represents a ratio of no greater than 2.

ITK = target: T1, ITK (Homo sapiens, UniProt Q08881); assay: Inhibition of ITK kinase; format: biochemical; conditions: 1% DMSO
T1 sequence (Q08881 1-620): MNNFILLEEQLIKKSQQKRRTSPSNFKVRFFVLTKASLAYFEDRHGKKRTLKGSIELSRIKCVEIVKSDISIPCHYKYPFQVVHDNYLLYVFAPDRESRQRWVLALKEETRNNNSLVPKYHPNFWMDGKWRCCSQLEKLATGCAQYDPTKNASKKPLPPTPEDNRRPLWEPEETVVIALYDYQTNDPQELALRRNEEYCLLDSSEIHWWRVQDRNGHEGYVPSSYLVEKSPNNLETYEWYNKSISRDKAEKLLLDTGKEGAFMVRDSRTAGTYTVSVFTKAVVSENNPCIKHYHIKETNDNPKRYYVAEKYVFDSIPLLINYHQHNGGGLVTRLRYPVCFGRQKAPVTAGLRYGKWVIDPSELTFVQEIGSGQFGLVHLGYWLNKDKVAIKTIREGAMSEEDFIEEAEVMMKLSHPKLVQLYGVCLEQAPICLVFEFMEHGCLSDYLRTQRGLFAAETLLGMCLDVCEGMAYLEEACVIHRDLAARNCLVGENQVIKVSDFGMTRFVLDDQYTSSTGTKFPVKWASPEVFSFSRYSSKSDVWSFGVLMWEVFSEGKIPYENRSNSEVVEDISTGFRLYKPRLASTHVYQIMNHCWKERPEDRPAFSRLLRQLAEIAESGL
Source text: The Z′-LYTE® biochemical assay is a fluorescence-based, coupled-enzyme assay based on the differential sensitivity of phosphorylated and non-phosphorylated peptides to proteolytic cleavage. A peptide substrate for a kinase is labeled with two fluorophores, one at each end, to form a FRET pair.
In the primary reaction, the kinase transfers the gamma-phosphate of ATP to a single tyrosine, serine, or threonine residue in the synthetic FRET-peptide substrate. In the secondary reaction, a site-specific protease recognizes and cleaves non-phosphorylated FRET-peptides. […] An inhibitory activity of a compound is thus determined from its effect on the cleavage of the synthetic FRET-peptide substrate.
Inhibition of BMX, BTK, ITK, and TXK kinases by a test compound is determined in 50 mM HEPES, pH 7.5, 0.01% BRIJ-35, 10 mM MgCl2, and 1 mM EGTA in the presence of 1% DMSO by volume.
Binding of an ALEXA FLUOR® conjugate or “tracer” to a kinase is detected by addition of a Eu-labeled anti-tag antibody. […] An inhibitory activity of a compound is thus determined from the extent of the FRET signal loss. Inhibition of ITK and TEC kinases by a test compound is determined in the presence of 1% DMSO.
Inhibition of BMX, BTK, PIK3C-D, ITK, TEC, and TXK kinases by compound A2 was measured using one of the assays described in Examples 2A and 3A.

[2] = test system: A431 human epidermoid carcinoma cells (wild-type ERBB1); assay: Cell proliferation assay, A431; format: cell-based; conditions: A-431, 72 hrs
Method: as §1, §2, §3, §4

GI50 ([1]; Homo sapiens, HCC827 cells, 72 hrs): < 500 nM | IC50 (ITK): ≤ 10 nM | GI50 [2]: 500 to 1000 nM
SMILES: C=CC(=O)N1CCCC[C@@H](n2c(NC(=O)c3ccnc(C)c3)nc3cccc(OC4CCN(C(C)=O)CC4)c32)C1 [Compound A2, (R)-N-(7-((1-acetylpiperidin-4-yl)oxy)-1-(1-acryloylazepan-3-yl)-1H-benzo[d]imidazol-2-yl)-2-methylisonicotinamide]
Ratio (Wild-type ERBB1/Mutant ERBB1) A431/HCC827 ([1]; GI50 ratio A431/HCC827): A′ (A′ represents a ratio of greater than 10) | Ratio (Wild-type ERBB1/Mutant ERBB1) HEKn/HCC827 ([1]; GI50 ratio HEKn/HCC827): A′ (A′ represents a ratio of greater than 10) | Inhibition (ITK): A (A represents a value no greater than 10 nM or no less than 90% inhibition)
